The nature of data set [1]: Log D, solubility and predicted bioavailability. The data set is classed as physicochemical. The conditions noted are these: aqueous.
The subject of another data set is S.Tm efflux pumps. In words: Nile Red efflux assay. The conditions noted are these: for glucose-activated efflux of Nile Red: 100 μM; for Nile Red efflux after washout of compound: 15 minutes with compound, washed, then glucose; for Nile Red fluorescence in the absence of glucose (basal loss): no glucose. The data set is classed as cell-based, Salmonella enterica serovar Typhimurium. The source says: Because Hoechst and other dyes commonly used to assess efflux bind cellular components, direct measurement of efflux is not possible using these methods; instead, the Hoechst assay measures dye accumulation, the net result of entry and efflux. Further, the slow off-rate of Hoechst entails that efflux pumps have no effect on dye already bound to DNA. As a result, compounds which increase Hoechst accumulation may actually enhance dye entry by altering porins or disrupting the membrane. To more specifically measure efflux pump activity, a second technique was employed using the dye Nile Red, a lipophilic membrane-partitioning dye which fluoresces in nonpolar environments. Because Nile Red is not known to bind cellular components, to directly observe efflux cells were preloaded with the dye in the absence of glucose to reduce efflux pump activity (FIG. 7A). Upon addition of glucose, bacteria rapidly effluxed Nile Red and fluorescence returned to baseline levels (FIG. 7B, top panel). […] The initial measured fluorescence was lower for DMSO-treated cells (upper dotted line) than for PAβN-treated cells due to glucose-independent efflux during sample preparation (FIG. 8A). Next, it was determined whether efflux pump activity is restored after removal of PAβN. Bacteria were incubated with compound for 15 minutes, pelleted and resuspended in buffer lacking compound, and then stimulated with glucose (FIGS. 7C, 7E).
Nile Red assays were adapted from an established protocol. Briefly, overnight Salmonella cultures were grown in Mueller-Hinton cation-adjusted broth (Sigma), washed, and resuspended at an OD600 of 2.0. Cells were incubated in 10 μM Nile Red for 3 hours at 37° C. with aeration, then moved to room temperature for 1 hour. After pelleting at 2000× g, dye-loaded cells were aliquoted and combined with compound at the indicated concentrations. Two hundred microliters was loaded into 96-well black walled plates (Greiner) and read using a Varioskan Flash Multimode Reader with 540 nm excitation and 625 nm emission filters. We observed that during loading into plates (˜20 minutes), bacteria were able to efflux Nile Red even in the absence of glucose (FIG. 8A). To activate efflux, glucose was added to a final concentration of 2 mM. In some experiments, bacteria were treated with drug for 15 minutes, pelleted at 16,000×g, resuspended in fresh buffer, and stimulated with 2 mM glucose. All wash and incubation steps were performed in PBS with 1 mM MgCl2; incubations were performed in glass tubes to reduce adhesion of Nile Red.

The subject of a further data set is HepG2 human liver cells. The data set can be described thus: LDH cytotoxicity assay. It is filed as cell-based. The note with it: 16 hours. The procedure: Cytoxocity was determined using the Pierce Lactate Dehydrogenase (LDH) Cytoxicity Assay. HepG2 liver cells were plated at 5×10^4 in 96 well tissue culture plates and allowed to settle overnight. Cells were treated with a 2-fold dilutions of each compound for 16 hours. Fifty microliters of conditioned media was mixed with the LDH assay reagent, incubated for 30 minutes, and absorbance was read at 490 and 680 nm. Curve fitting to determine CC50s was performed using GraphPad Prism; the CC50 is defined as 50% of the maximum LDH release as determined by lysed macrophages. There was no spontaneous LDH release or LDH present in the media.

The subject of data set [2] is extracellular S.Tm grown in MHB broth. The data set can be described thus: Broth activity assay (growth / MIC in Mueller Hinton Broth). It is filed as cell-based, Salmonella enterica serovar Typhimurium. The conditions noted are these: Salmonella enterica, three Salmonella strains SL1344, MAR1, S10801. The procedure:
Overnight Salmonella cultures were washed 3 times in PBS and diluted to an OD of 0.01 in Mueller Hinton Broth in 96-well flat bottom plates. Compound was added using a pin tool (CyBio) or manually, yielding a final concentration of no more than 1% DMSO. Plates were grown at 37° C. shaking and OD600 was monitored using a BioTek Eon incubator shaker microplate absorbance reader. For experiments in defined media, bacteria were grown in M9 minimal media supplemented with 100 mM Tris pH 7.4, 0.35% glycerol, 0.002% histidine, 10 mM MgCl2, and 0.1% casamino acids. Where indicated, media was supplemented with 5 μg/ml polymyxin B or 0.2 mM H2O2. For experiments with LL-37, bacteria were grown in M9 minimal media supplemented with 0.4% dextrose, 0.004% histidine, 1 mM MgSO4, and 5 μg/ml LL-37. For checkerboard assays, MIC was defined as the concentration at which no growth was visually observed.

Data set [3] has as its system S.Tm infection of C57BL/6 mice. The data set can be described thus: Mouse infection with S.Tm, tetracycline and EPM35 treatment. Here is the method:
Finally, whether EPM35 increased sensitivity of 510801 and wild-type S.Tm to tetracycline in vivo was tested. 7-week-old C57BL/6 mice were intraperitoneally infected with 1×10^4 bacteria. At 30 minutes and 24 hours post-infection, 25 mg/kg tetracycline and 50 mg/kg EPM35 was injected. […] Thus, the experiment was ended at 30 hours post-infection; the spleen and liver were harvested and plated to determine bacterial CFU.
These studies were carried out in strict accordance with the recommendations in the Guide for the Care and Use of Laboratory Animals of the National Institutes of Health, and all protocols were approved by the University of Colorado Institutional Committees for Biosafety and for Animal Care and Use. Bacteria were grown overnight in LB, then diluted in PBS. Seven week old C57/B16 female mice were intraperitoneally injected with 1×10^4S.Tm in 100 μL. Thirty minutes later, mice received two intraperitoneal injections: 25 mg/kg tetracycline in 150 μL PBS or PBS alone, and 50 mg/kg EPM35 in 100 μL DMSO or DMSO alone. Drug injections were repeated at 24 hours post-infection. At 30 hours post-infection, mice were humanely euthanized using carbon dioxide asphyxiation followed by cervical dislocation. Spleens and livers were harvested, homogenized, diluted in PBS, and plated to enumerate S.Tm CFUs.

“And” between values parts separate entries of the source, which are not always exact repeats. Equal values may be shown once. “Also recorded” adds a separate entry of the source. Bounds are passed on as bounds.

The term MIC denotes the lowest concentration that inhibits growth of the organism. In the case of `Cc1ccc(Sc2cccc3nc(N)nc(N)c23)cc1` [EPM43], the solubility result in data set [1] is recorded as “poor aqueous solubility”. Moreover, in the data set on S.Tm efflux pumps, the “glucose-activated efflux of Nile Red” value is on record as “only partially inhibited efflux”, the “Nile Red efflux after washout of compound” value was “partially effluxed Nile Red after compound washout; also recorded: partially restored Nile Red export” and the “Nile Red fluorescence in the absence of glucose (basal loss)” value is recorded as “inhibit basal loss of Nile Red”. Also, the “toxicity in HepG2 LDH assays” value in the data set with HepG2 human liver cells is listed as “less toxic to HepG2 cells than the other EPMs”. The MIC in data set [2] was > 400 µM and 113 µg/mL.

In the case of `OC(COc1ccc(Cl)c(Cl)c1)CN1CCC(Nc2nccc(C(F)(F)F)n2)CC1` (stereo not shown) [EPM35], the “signs in treated mice” value in data set [3] (50 mg/kg intraperitoneal at 30 minutes and 24 hours post-infection) was “Distress was observed”. In addition, the “bacterial CFU in spleen and liver, co-treatment with tetracycline” value in data set [3] (S10801-infected mice, 25 mg/kg tetracycline + 50 mg/kg EPM35) is given as “appeared to further reduce bacterial CFU”. For the same compound, the “enhanced decrease of CFU on co-treatment with tetracycline” value in data set [3] (mice infected with wild-type bacteria, 25 mg/kg tetracycline + 50 mg/kg EPM35) is reported as “not observed”. Also, in the data set with S.Tm efflux pumps, the “glucose-activated efflux of Nile Red” value is on record as “fully inhibited efflux”, the “Nile Red efflux after washout of compound” value was “remained unable to efflux” and the “Nile Red fluorescence in the absence of glucose (basal loss)” value is listed as “inhibit basal loss of Nile Red”. The MIC in data set [2] was 400 µM and 186 µg/mL.

The values above are taken from patent publication US11110080B2, “Small molecule inhibitors of bacterial efflux pumps and methods of using same” (The Regents of the University of Colorado, a body Corporate, priority 2017, dated 2021).
